Key:
[1] = system: Cobra-Venom-Factor (CVF)-oedema; assay: CVF-oedema test (inflammation-inhibiting activity); assay type: in vivo; conditions: po, read-out: ED50 values in CVF-oedema
[2] = system: CVF-oedema, carragenine-test; conditions: S. Leyck et al., Agents and Actions 13, 437-438 (1983); cited from earlier work

SMILES | ED50 [1] | inhibiting effect in CVF-oedema-test as compared with carragenine-test [2]
CC(C)C(C(=O)O)n1[se]c2ccccc2c1=O (racemic) [DL-2-(1,2-Benzisoselenazole-3(2H)-one-2-yl)-3-methylbutyric acid] | 5 mg/kg | 
O=C1CCN(c2ccccc2)N1 [phenidone] |  | more significant inhibiting effect in CVF-oedema-test as in carragenine-test
c1ccc([C@H]2CN3CCSC3=N2)cc1 [levamisole] |  | more significant inhibiting effect in CVF-oedema-test as in carragenine-test
